The text below walks through data of patent US7745574B2, “Compounds that regulate apoptosis” (The Burnham Institute, priority 2005, dated 2010).

[ ]: non-standard residue; d: D form. Ahx = NCCCCCC(=O)O

In the first experiment the test system is H460 lung cancer cells. Description: Apoptosis in H460 lung cancer cells. Type of experiment: cell-based. The conditions noted are these: alanine scan, H460 lung cancer cells.
Regarding “acetyl-FSRSLHSALGXrrrrrrrr-amide (Ac-FSRSLHSALG[Ahx][dR][dR][dR][dR][dR][dR][dR][dR]-NH2; SMILES CC(=O)N[C@@H](Cc1ccccc1)C(=O)N[C@@H](CO)C(=O)N[C@@H](CCCNC(=N)N)C(=O)N[C@@H](CO)C(=O)N[C@@H](CC(C)C)C(=O)N[C@@H](Cc1c[nH]cn1)C(=O)N[C@@H](CO)C(=O)N[C@@H](C)C(=O)N[C@@H](CC(C)C)C(=O)NCC(=O)NCCCCCC(=O)N[C@H](CCCNC(=N)N)C(=O)N[C@H](CCCNC(=N)N)C(=O)N[C@H](CCCNC(=N)N)C(=O)N[C@H](CCCNC(=N)N)C(=O)N[C@H](CCCNC(=N)N)C(=O)N[C@H](CCCNC(=N)N)C(=O)N[C@H](CCCNC(=N)N)C(=O)N[C@H](CCCNC(=N)N)C(N)=O) [SEQ ID NO: 63]”, the “apoptotic effect of alanine-substituted Nur77-9” value is reported as “largely impaired”.
The same measure, in the same setting: then “acetyl-FSRSLHSLAGXrrrrrrrr-amide (Ac-FSRSLHSLAG[Ahx][dR][dR][dR][dR][dR][dR][dR][dR]-NH2; SMILES CC(=O)N[C@@H](Cc1ccccc1)C(=O)N[C@@H](CO)C(=O)N[C@@H](CCCNC(=N)N)C(=O)N[C@@H](CO)C(=O)N[C@@H](CC(C)C)C(=O)N[C@@H](Cc1c[nH]cn1)C(=O)N[C@@H](CO)C(=O)N[C@@H](CC(C)C)C(=O)N[C@@H](C)C(=O)NCC(=O)NCCCCCC(=O)N[C@H](CCCNC(=N)N)C(=O)N[C@H](CCCNC(=N)N)C(=O)N[C@H](CCCNC(=N)N)C(=O)N[C@H](CCCNC(=N)N)C(=O)N[C@H](CCCNC(=N)N)C(=O)N[C@H](CCCNC(=N)N)C(=O)N[C@H](CCCNC(=N)N)C(=O)N[C@H](CCCNC(=N)N)C(N)=O) [SEQ ID NO: 64]”, with “largely impaired”; and “acetyl-ASRSLHSLLGXmmrrr-amide [SEQ ID NO: 61]”, with “largely impaired”.
On the same count and under the same terms, the value for “acetyl-FSRSAHSLLGXrrrrrrrr-amide (Ac-FSRSAHSLLG[Ahx][dR][dR][dR][dR][dR][dR][dR][dR]-NH2; SMILES CC(=O)N[C@@H](Cc1ccccc1)C(=O)N[C@@H](CO)C(=O)N[C@@H](CCCNC(=N)N)C(=O)N[C@@H](CO)C(=O)N[C@@H](C)C(=O)N[C@@H](Cc1c[nH]cn1)C(=O)N[C@@H](CO)C(=O)N[C@@H](CC(C)C)C(=O)N[C@@H](CC(C)C)C(=O)NCC(=O)NCCCCCC(=O)N[C@H](CCCNC(=N)N)C(=O)N[C@H](CCCNC(=N)N)C(=O)N[C@H](CCCNC(=N)N)C(=O)N[C@H](CCCNC(=N)N)C(=O)N[C@H](CCCNC(=N)N)C(=O)N[C@H](CCCNC(=N)N)C(=O)N[C@H](CCCNC(=N)N)C(=O)N[C@H](CCCNC(=N)N)C(N)=O) [SEQ ID NO: 62]” was “largely impaired”.

System in the next experiment: not listed separately
Kind of experiment: Induction of apoptosis by Nur77 peptides, cell line not stated. The experiment is classed as cell-based.
Conditions: not given
As for the experimental part:
Apoptosis assays—For nuclear morphological change analysis, cells were trypsinized, washed with PBS, fixed with 3.7% paraformaldehyde, and stained with DAPI (4,6-diamidino-2-phenylindole) (50 μg/ml) to visualize the nuclei by UV-microscopy. The percentages of apoptotic cells were determined by counting 300 GFP-positive cells, scoring cells having nuclear fragmentation and/or chromatin condensation.
For “acetyl------------FAALSALVLGXrrrrrrrr-amide (Ac-FAALSALVLG[Ahx][dR][dR][dR][dR][dR][dR][dR][dR]-NH2; SMILES CC(=O)N[C@@H](Cc1ccccc1)C(=O)N[C@@H](C)C(=O)N[C@@H](C)C(=O)N[C@@H](CC(C)C)C(=O)N[C@@H](CO)C(=O)N[C@@H](C)C(=O)N[C@@H](CC(C)C)C(=O)N[C@H](C(=O)N[C@@H](CC(C)C)C(=O)NCC(=O)NCCCCCC(=O)N[C@H](CCCNC(=N)N)C(=O)N[C@H](CCCNC(=N)N)C(=O)N[C@H](CCCNC(=N)N)C(=O)N[C@H](CCCNC(=N)N)C(=O)N[C@H](CCCNC(=N)N)C(=O)N[C@H](CCCNC(=N)N)C(=O)N[C@H](CCCNC(=N)N)C(=O)N[C@H](CCCNC(=N)N)C(N)=O)C(C)C) [SEQ ID NO: 17]”, the induction of apoptosis entry was “apoptotic”.
On the same count and under the same terms, the value for “acetyl------------FGDWIDSILGXrrrrrrrr-amide (Ac-FGDWIDSILG[Ahx][dR][dR][dR][dR][dR][dR][dR][dR]-NH2; SMILES CC[C@H](C)[C@H](NC(=O)[C@H](CO)NC(=O)[C@H](CC(=O)O)NC(=O)[C@@H](NC(=O)[C@H](Cc1c[nH]c2ccccc12)NC(=O)[C@H](CC(=O)O)NC(=O)CNC(=O)[C@H](Cc1ccccc1)NC(C)=O)[C@@H](C)CC)C(=O)N[C@@H](CC(C)C)C(=O)NCC(=O)NCCCCCC(=O)N[C@H](CCCNC(=N)N)C(=O)N[C@H](CCCNC(=N)N)C(=O)N[C@H](CCCNC(=N)N)C(=O)N[C@H](CCCNC(=N)N)C(=O)N[C@H](CCCNC(=N)N)C(=O)N[C@H](CCCNC(=N)N)C(=O)N[C@H](CCCNC(=N)N)C(=O)N[C@H](CCCNC(=N)N)C(N)=O) [SEQ ID NO: 16]” was “apoptotic”; that for “acetyl------------LLSHLSRSFGXrrrrrrrr-amide (Ac-LLSHLSRSFG[Ahx][dR][dR][dR][dR][dR][dR][dR][dR]-NH2; not fully specified; printed as acetyl------------LLSHLSRSFGXrrrrrrrr-amide) [Nur77/1 (inverso)]” was “apoptotic”; that for “acetyl------------llshlsrsfGXrrrrrrrr-amide (Ac-[dL][dL][dS][dH][dL][dS][dR][dS][dF]G[Ahx][dR][dR][dR][dR][dR][dR][dR][dR]-NH2; SMILES CC(=O)N[C@H](CC(C)C)C(=O)N[C@H](CC(C)C)C(=O)N[C@H](CO)C(=O)N[C@H](Cc1c[nH]cn1)C(=O)N[C@H](CC(C)C)C(=O)N[C@H](CO)C(=O)N[C@H](CCCNC(=N)N)C(=O)N[C@H](CO)C(=O)N[C@H](Cc1ccccc1)C(=O)NCC(=O)NCCCCCC(=O)N[C@H](CCCNC(=N)N)C(=O)N[C@H](CCCNC(=N)N)C(=O)N[C@H](CCCNC(=N)N)C(=O)N[C@H](CCCNC(=N)N)C(=O)N[C@H](CCCNC(=N)N)C(=O)N[C@H](CCCNC(=N)N)C(=O)N[C@H](CCCNC(=N)N)C(=O)N[C@H](CCCNC(=N)N)C(N)=O) [Nur77/1(retro-inverso)]” was “apoptotic”.
With “acetyl------------FYLKLEDLVGXrrrrrrrr-amide (Ac-FYLKLEDLVG[Ahx][dR][dR][dR][dR][dR][dR][dR][dR]-NH2; SMILES CC(=O)N[C@@H](Cc1ccccc1)C(=O)N[C@@H](Cc1ccc(O)cc1)C(=O)N[C@@H](CC(C)C)C(=O)N[C@@H](CCCCN)C(=O)N[C@@H](CC(C)C)C(=O)N[C@@H](CCC(=O)O)C(=O)N[C@@H](CC(=O)O)C(=O)N[C@@H](CC(C)C)C(=O)N[C@H](C(=O)NCC(=O)NCCCCCC(=O)N[C@H](CCCNC(=N)N)C(=O)N[C@H](CCCNC(=N)N)C(=O)N[C@H](CCCNC(=N)N)C(=O)N[C@H](CCCNC(=N)N)C(=O)N[C@H](CCCNC(=N)N)C(=O)N[C@H](CCCNC(=N)N)C(=O)N[C@H](CCCNC(=N)N)C(=O)N[C@H](CCCNC(=N)N)C(N)=O)C(C)C) [SEQ ID NO: 18]”, the induction of apoptosis result is recorded as “apoptotic”.
On the same count and under the same terms, then “acetyl---F——L_LLGXrrrrrrrr-amide (Ac-FLLLG[Ahx][dR][dR][dR][dR][dR][dR][dR][dR]-NH2; SMILES CC(=O)N[C@@H](Cc1ccccc1)C(=O)N[C@@H](CC(C)C)C(=O)N[C@@H](CC(C)C)C(=O)N[C@@H](CC(C)C)C(=O)NCC(=O)NCCCCCC(=O)N[C@H](CCCNC(=N)N)C(=O)N[C@H](CCCNC(=N)N)C(=O)N[C@H](CCCNC(=N)N)C(=O)N[C@H](CCCNC(=N)N)C(=O)N[C@H](CCCNC(=N)N)C(=O)N[C@H](CCCNC(=N)N)C(=O)N[C@H](CCCNC(=N)N)C(=O)N[C@H](CCCNC(=N)N)C(N)=O) [SEQ ID NO: 40]”, with “apoptotic”.
